Laboratory results as given in publication PMC8262977, “A Dual-Specificity Inhibitor Targets Polyphosphate Kinase 1 and 2 Enzymes To Attenuate Virulence of Pseudomonas aeruginosa” (mBio, 2021).
In brackets after ≈: the same amount, converted by molar mass. Where two headings read alike, the source gives them in different places.

Tests used:
E. coli PPK1 = test system: E. coli PPK1; set-up: method as in earlier work; conditions: ref 1 (supplement: Ahn K, Kornberg A. 1990); cited from earlier work
P. aeruginosa PPK2A = target: T1, P. aeruginosa PPK2A (Pseudomonas aeruginosa, UniProt Q9I6Z1); experiment: PPK2A ADP phosphorylation by polyP (ATP synthesis), toluidine blue detection; assay type: biochemical
T1 construct: residues P9 to P289; MBP (N, cleaved yes); His tag (N, cleaved yes); made in house; host or cells: E. coli BL21(DE3)
T1 sequence (Q9I6Z1 68-348): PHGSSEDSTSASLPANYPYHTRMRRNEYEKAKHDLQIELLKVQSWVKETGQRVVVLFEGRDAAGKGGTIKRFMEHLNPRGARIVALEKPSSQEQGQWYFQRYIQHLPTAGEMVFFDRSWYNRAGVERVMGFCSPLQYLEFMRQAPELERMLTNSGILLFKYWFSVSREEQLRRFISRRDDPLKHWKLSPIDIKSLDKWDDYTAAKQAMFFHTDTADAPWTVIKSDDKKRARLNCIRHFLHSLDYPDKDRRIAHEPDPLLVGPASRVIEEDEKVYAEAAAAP
Procedure: (§1) All IC50 and kinetic assay mixtures contained equimolar amounts (275 nM) of PPK to ensure valid comparison between different enzymes. PolyP synthesis activity (for PPK1 and PPK2B) was assayed using the reaction buffer and conditions described above. ATP concentration was varied as indicated for kinetic experiments. Curves were fit using GraphPad Prism V9.
(§2) Nucleotide phosphorylation activity of PPK2 enzymes was assayed in buffer containing 50 mM Tris-HCl, pH 7.5, 10 mM (NH4)2SO4, 10 mM MgCl2, 5 mM polyP45 (Sigma; in terms of individual Pi monomers), and nucleotide (ADP or AMP) at 5 mM for IC50 reactions or as indicated for kinetic experiments. Enzyme was added to a final concentration of 275 nM in 100-μl reaction volumes. One-hundred-microliter reaction mixtures were incubated at 37°C for 30 min, and then 5-μl aliquots were withdrawn and added to 1,000 μl of 6-mg/liter toluidine blue dissolved in 40 mM acetic acid to quench the reaction and quantify the polyP that remained. The A630/530 nm ratio was then recorded, and the values obtained were corrected by subtracting the corresponding blanks (all ingredients except enzyme). The amount of polyP consumed was calculated by subtracting the amount present after reaction from that present in the initial reaction mix, as calculated via a standard curve. Each monomer of Pi consumed from polyP equates to one nucleoside phosphorylated. Curves were fit using GraphPad Prism V9.

P. aeruginosa PPK1 = target: T2, P. aeruginosa PPK1 (Pseudomonas aeruginosa, UniProt P0DP44); experiment: PPK1 polyP synthesis from ATP, toluidine blue detection; assay type: biochemical; conditions: polyP synthesis from ATP; 275 nM enzyme
T2 construct: His tag (cleaved yes); made in house
T2 sequence (P0DP44 whole entry): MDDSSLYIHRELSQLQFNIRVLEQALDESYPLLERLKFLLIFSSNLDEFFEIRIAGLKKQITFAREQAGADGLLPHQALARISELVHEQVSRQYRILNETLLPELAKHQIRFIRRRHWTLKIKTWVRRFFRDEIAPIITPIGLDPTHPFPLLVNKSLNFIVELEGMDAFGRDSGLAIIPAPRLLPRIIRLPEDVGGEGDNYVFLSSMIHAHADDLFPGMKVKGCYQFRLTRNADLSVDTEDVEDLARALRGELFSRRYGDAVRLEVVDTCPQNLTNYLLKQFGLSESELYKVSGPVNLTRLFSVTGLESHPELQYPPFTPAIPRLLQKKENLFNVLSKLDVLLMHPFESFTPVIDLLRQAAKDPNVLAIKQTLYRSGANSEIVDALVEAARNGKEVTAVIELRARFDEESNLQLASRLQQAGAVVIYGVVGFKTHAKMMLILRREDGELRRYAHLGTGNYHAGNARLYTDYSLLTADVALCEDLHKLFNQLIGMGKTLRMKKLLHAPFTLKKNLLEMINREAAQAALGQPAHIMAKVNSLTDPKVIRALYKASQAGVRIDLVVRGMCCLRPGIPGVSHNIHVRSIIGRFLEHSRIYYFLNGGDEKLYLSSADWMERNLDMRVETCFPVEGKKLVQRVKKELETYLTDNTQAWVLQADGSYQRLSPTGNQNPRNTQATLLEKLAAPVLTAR
Procedure: Compounds were synthesized as outlined in Text S1. Compounds were dissolved in DMSO to make 10 mM stocks and added to a 200 μM final concentration for initial screening. The screen for PPK1 inhibitors was conducted by measuring polyP synthesis activity as described previously ([12]), with the exception of the polyP detection method (see Text S1). […] One-hundred-microliter reaction mixtures were incubated at 37°C for 30 min, after which time 50-μl aliquots were withdrawn and added to 1,000 μl of 6-mg/liter toluidine blue dissolved in 40 mM acetic acid to quench the reaction and quantify polyP ([27]). The A630/530 nm ratio was then recorded, and the values obtained were corrected by subtracting the corresponding blanks (all ingredients except enzyme). The amount of polyP synthesized was calculated using a standard curve (Fig. S1A). Any compounds showing 50% or greater reduction in activity relative to the DMSO control were subjected to further IC50 analysis.
as §1

P. aeruginosa PPK2C = target: T3, P. aeruginosa PPK2C (Pseudomonas aeruginosa, UniProt Q9HYF1); experiment: PPK2C AMP phosphorylation by polyP (ADP synthesis), toluidine blue detection; assay type: biochemical
T3 construct: MBP (N, cleaved yes); His tag (N, cleaved yes); made in house; host or cells: E. coli BL21(DE3)
T3 sequence (Q9HYF1 whole entry): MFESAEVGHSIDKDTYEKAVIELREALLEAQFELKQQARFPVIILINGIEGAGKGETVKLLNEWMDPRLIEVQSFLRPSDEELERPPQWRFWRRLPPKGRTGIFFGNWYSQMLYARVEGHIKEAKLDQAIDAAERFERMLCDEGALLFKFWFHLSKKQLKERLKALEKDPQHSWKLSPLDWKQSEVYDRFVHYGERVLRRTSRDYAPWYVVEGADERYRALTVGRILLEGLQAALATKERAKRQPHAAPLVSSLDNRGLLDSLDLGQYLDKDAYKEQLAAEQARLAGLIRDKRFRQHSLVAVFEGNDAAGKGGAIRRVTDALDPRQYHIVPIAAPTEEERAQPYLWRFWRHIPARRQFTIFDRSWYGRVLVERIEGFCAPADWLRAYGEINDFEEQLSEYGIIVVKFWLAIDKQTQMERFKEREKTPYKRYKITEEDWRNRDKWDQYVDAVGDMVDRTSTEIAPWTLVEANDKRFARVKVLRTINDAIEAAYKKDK
Procedure: as §1, §2

HEK293T cells = experiment: HEK293T cytotoxicity assay, trypan blue; assay type: cell-based, human; conditions: 48 h incubation
Procedure: HEK293 cells were grown in Dulbecco’s modified Eagle’s medium supplemented with 10% fetal bovine serum at 5% CO2 and 37°C. Cells were grown until a confluent monolayer was formed in 12-well culture plates, at which point inhibitors or DMSO was added. After 48-h incubation, cells were detached with trypsin and percent viability was scored via a hemocytometer and trypan blue staining.

P. aeruginosa PPK2B = target: T4, P. aeruginosa PPK2B (Pseudomonas aeruginosa, UniProt Q9I154); experiment: PPK2B polyP synthesis from ATP, toluidine blue detection; assay type: biochemical
T4 construct: MBP (N, cleaved yes); His tag (N, cleaved yes); made in house; host or cells: E. coli BL21(DE3)
T4 sequence (Q9I154 whole entry): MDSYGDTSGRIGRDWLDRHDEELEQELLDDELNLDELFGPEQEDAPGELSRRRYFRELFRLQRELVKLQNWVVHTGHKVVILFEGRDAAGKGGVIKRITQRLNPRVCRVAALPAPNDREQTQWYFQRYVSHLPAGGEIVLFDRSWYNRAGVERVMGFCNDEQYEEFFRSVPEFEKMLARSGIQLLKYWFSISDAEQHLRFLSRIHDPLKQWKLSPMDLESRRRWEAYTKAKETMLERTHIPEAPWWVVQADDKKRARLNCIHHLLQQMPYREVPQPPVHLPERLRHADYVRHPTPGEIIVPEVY
Procedure: Compounds were synthesized as outlined in Text S1. Compounds were dissolved in DMSO to make 10 mM stocks and added to a 200 μM final concentration for initial screening. The screen for PPK1 inhibitors was conducted by measuring polyP synthesis activity as described previously ([12]), with the exception of the polyP detection method (see Text S1). The reaction mix contained 50 mM HEPES-KOH, pH 7.5, 40 mM (NH4)2SO4, 4 mM MgSO4, 60 mM creatine phosphate, 0.0625 mg/ml creatine kinase (Sigma; from rabbit muscle), 5 mM ATP, and 275 nM PPK1 (added last). One-hundred-microliter reaction mixtures were incubated at 37°C for 30 min, after which time 50-μl aliquots were withdrawn and added to 1,000 μl of 6-mg/liter toluidine blue dissolved in 40 mM acetic acid to quench the reaction and quantify polyP ([27]). The A630/530 nm ratio was then recorded, and the values obtained were corrected by subtracting the corresponding blanks (all ingredients except enzyme). The amount of polyP synthesized was calculated using a standard curve (Fig. S1A). Any compounds showing 50% or greater reduction in activity relative to the DMSO control were subjected to further IC50 analysis.
as §1

P. aeruginosa [1] = experiment: Antibiotic synergy in the C. elegans LK model; assay type: in vivo, Caenorhabditis elegans; set-up: C. elegans antibiotic synergy, Mean Diff.: unit not given here
Procedure: Assessment of antibiotic synergy in the C. elegans model was adapted from previously described protocols ([25]). Briefly, glp-4 C. elegans worms were incubated at 25°C with P. aeruginosa and the indicated amount of gallein or DMSO in LK medium as described above. After 24 h, antibiotics were added. After another 24 h, C. elegans survival was scored as described above.

P. aeruginosa [2] = experiment: microbe, parasite or virus in culture; assay type: cell-based, Pseudomonas aeruginosa; conditions: Pseudomonas aeruginosa
[3] = ATP synthesis from ADP and polyP, 275 nM enzyme, read-out: IC50 PPK2A
[4] = Data Set S1, sheet Risen compounds, read-out: PA PPK2A IC50
[5] = ADP synthesis from AMP and polyP, 275 nM enzyme, read-out: IC50 PPK2C
[6] = Data Set S1, sheet Risen compounds, read-out: PA PPK2C IC50
[7] = polyP synthesis from ATP, 275 nM enzyme, read-out: IC50 PPK2B

In the case of `Nc1ncnc2c1ncn2[C@@H]1O[C@H](COP(=O)(O)OP(=O)(O)O)[C@@H](O)[C@H]1O` [ADP], the Ki (E. coli PPK1) is given as 90 µM.
In the case of `COc1ccc2c(c1OC)c(=O)oc1c(OC)c(O)ccc12` [RT1, 3-hydroxy-4,7,8-trimethoxy-6H-benzo[c]chromen-6-one], the IC50 (P. aeruginosa PPK2A; [3]) is reported as greater than 500 µM, the IC50 (P. aeruginosa PPK2A; [4]) is reported as greater than 500 µM and the IC50 (P. aeruginosa PPK1) is reported as 120 ± 10 µM. For the same compound, the IC50 (P. aeruginosa PPK2C; [5]) was greater than 500 µM, the IC50 (P. aeruginosa PPK2C; [6]) was greater than 500 µM and the “reduction of cell viability” value (HEK293T cells) was roughly 60%. The IC50 (P. aeruginosa PPK2B; Data Set S1, sheet Risen compounds, read-out: PA PPK2B IC50) was greater than 500 µM and the IC50 (P. aeruginosa PPK2B; [7]) was greater than 500 µM.
For `O=c1oc2c(O)c(O)c(O)c3c(=O)oc4c(O)c(O)cc1c4c23` [RT2, 1,2,3,7,8-pentahydroxychromeno[5,4,3-cde]chromene-5,10-dione], the IC50 (P. aeruginosa PPK2A; [3]) was greater than 500 µM, the IC50 (P. aeruginosa PPK2A; [4]) was greater than 500 µM and the IC50 (P. aeruginosa PPK1) was 20 ± 4 µM. It also gave an IC50 (P. aeruginosa PPK2C; [5]) greater than 500 µM, an IC50 (P. aeruginosa PPK2C; [6]) greater than 500 µM and an IC50 (P. aeruginosa PPK2B; [7]) of 59 ± 5 µM.
Work on `O=c1oc2c(O)c(O)cc3c(=O)oc4c(O)c(O)cc1c4c23` [RT3 (ellagic acid), 2,3,7,8-tetrahydroxychromeno[5,4,3-cde]chromene-5,10-dione] yielded an IC50 (P. aeruginosa PPK2A; [3]) of 50 ± 6 µM, an IC50 (P. aeruginosa PPK1) of 20 ± 2 µM and an IC50 (P. aeruginosa PPK2C; [5]) greater than 500 µM. It also gave an IC50 (P. aeruginosa PPK2C; [6]) greater than 500 µM and an IC50 (P. aeruginosa PPK2B; [7]) of 48 ± 2 µM.
For `O=C(O)c1cn(C2CC2)c2cc(N3CCNCC3)c(F)cc2c1=O` [ciprofloxacin, reference compound], the “C. elegans antibiotic synergy, Mean Diff.” value (P. aeruginosa [1]; No antibiotic + 100 µM gallein vs Cipro (0.75 µg/mL) + 100 µM gallein) was -18.9 and the “C. elegans antibiotic synergy, Mean Diff.” value (P. aeruginosa [1]; No antibiotic DMSO vs Cipro (0.75 µg/mL) DMSO) was 12.02.
For `CN(C)[C@@H]1C(O)=C(C(N)=O)C(=O)[C@@]2(O)C(O)=C3C(=O)c4c(O)cccc4[C@@](C)(O)[C@H]3C[C@@H]12` [tetracycline, reference compound], the MIC (P. aeruginosa [2]) was 16 µg/mL (≈ 36 µM), the “C. elegans antibiotic synergy, Mean Diff.” value (P. aeruginosa [1]; No antibiotic + 100 µM gallein vs Tet (10 µg/mL) + 100 µM gallein) was -22.79 and the “C. elegans antibiotic synergy, Mean Diff.” value (P. aeruginosa [1]; No antibiotic DMSO vs Tet (10 µg/mL) DMSO) was 10.54.
